Earlier results on two molecules are cited in patent US20140213605A1, “METHODS FOR TREATING EYE DISORDERS USING OPIOID RECEPTOR ANTAGONISTS” (priority 2013, published 2014).

For series [1] the following is noted: in vivo.
The subject of series [2] is rat cornea.

Regarding `O=C1CC[C@@]2(O)[C@H]3Cc4ccc(O)c5c4[C@@]2(CCN3CC2CC2)[C@H]1O5` [Naltrexone], in series [1], the Excreted unchanged result is “Less than 1%”. In addition, the “Effect on incidence of re-epithelialization of the rat cornea” value in series [2] (systemically administered) is “markedly influenced the incidence of re-epithelialization”. Besides, the “Effect on re-epithelialization of the rat cornea” value in series [2] (topical application in sterile water) was “not effective”.
On to `Oc1ccc2c3c1O[C@H]1[C@H](O)CC[C@@]4(O)[C@@H](C2)N(CC2CC2)CC[C@]314` [6-β-naltrexol], for which, in series [1], the “Bound to plasma protein” value is “Approximately 20%”.
